# Measured values: US20220274947A1, “NOVEL HETEROARYL-TRIAZOLE COMPOUNDS AS PESTICIDES” (Bayer Aktiengesellschaft, priority 2019, published 2022)
# Key:
# Type in all cases: in vivo
# Nezara viridula = Nezara viridula spray test; settings: in Hordeum vulgare, 96 h, application rate 500 g/ha, barley plants, larvae, after 4 days
# Procedure, shortened: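 Barley plants infested with N. viridula larvae were sprayed with compound in acetone/DMF diluted with water containing 1000 ppm alkylarylpolyglycol ether emulsifier. Mortality (%) was scored after 4 days; 100% means all bugs killed, 0% none.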
# Diabrotica balteata = Diabrotica balteata spray test; settings: 168 h, wheat seeds, larvae, after 7 days, read-out: activity (efficacy: 100% means all seedlings have grown up like in the untreated, uninfected control); for pest or weed control at 32 µg/disc, 100 g/ha: application rate 100 g/ha (=32 μg/well); for pest or weed control at 160 µg/disc, 500 g/ha: application rate 500 g/ha (=160 μg/well)
# Procedure, shortened: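 Wheat seedlings, germinated 1 day on agar, were sprayed with compound in acetone/DMF diluted in water containing emulsifier, then infested with 10-20 Diabrotica balteata larvae. After 7 days efficacy in % was scored: 100% means seedlings grew like the untreated, uninfected control; 0% means none grew.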
# Rhipicephalus sanguineus = Rhipicephalus sanguineus in-vitro contact test, adult brown dog ticks (RHIPSA Cont); settings: 48 h, after 48 hours, read-out: activity (efficacy: 100% means all ticks are dead or moribund); for pest or weed control at 1 µg/cm2, 100 g/ha: application rate 1 μg/cm^2 (=100 g/ha)
# Procedure, shortened: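 Compound in acetone (9 mg/mL stock, diluted to test concentration) is coated onto inner walls of glass tubes by rotation for 2 h at 30 rpm. Efficacy is read after 48 h: ticks are tapped down and held on a 45-50° C plate for at most 5 min, and immotile or uncoordinated ones that fail to climb away count as dead or moribund.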
# Rhipicephalus microplus [1] = assay: Rhipicephalus (Boophilus) microplus injection test (BOOPMI Inj); settings: 168 h, injection into adult engorged female ticks, egg deposition after 7 days, read-out: activity (efficacy: 100% means all eggs are infertile); for pest or weed control at 0.004 mg: application rate 4 μg/tick; for pest or weed control at 0.02 mg: application rate 20 μg/tick
# Procedure, shortened: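 Five engorged adult female R. microplus ticks injected into the abdomen with 1 μL of compound diluted in DMSO, then kept in a climate chamber. Fertile egg deposition checked after 7 days; eggs without visible fertility held until hatching at about 42 days. Efficacy: 100% = all eggs infertile, 0% = all fertile.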
# Ctenocephalides felis [2] = assay: Ctenocephalides felis oral test (CTECFE Oral); settings: 48 h, read-out: activity (mortality)
# Procedure, shortened: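 About 20 unfed adult cat fleas fed through parafilm on cattle blood containing compound (DMSO concentrate diluted in blood to the desired concentration). Blood held at 37 °C, fleas at room temperature. Mortality (%) scored after 2 days.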
# Myzus persicae = Myzus persicae oral test; settings: 120 h, read-out: activity (mortality)
# Procedure, shortened: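 Percent mortality was recorded at day 5, where 0% means no aphids killed. Compound prepared from an acetone concentrate diluted in water and combined with IPL41 medium containing sugar was offered to mixed-stage green peach aphids, which sucked it through a parafilm seal.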
# Spodoptera frugiperda = Spodoptera frugiperda spray test; settings: in Zea mays, 168 h, read-out: activity (mortality)
# Procedure, shortened: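 Maize leaf sections were sprayed with compound formulated in acetone/DMF and diluted in water containing 1000 ppm emulsifier. Dried leaves were infested with fall armyworm larvae, and percent mortality was scored after 7 days.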
# Rhipicephalus microplus [3] = assay: Rhipicephalus (Boophilus) microplus in-vitro contact test, larval cattle tick, strain Parkhurst (BOOPMI Cont); settings: application rate 5 μg/cm^2 (=500 g/ha), tick larvae, after 48 hours, read-out: activity (efficacy: 100% means all larvae are dead or moribund)
# Procedure, shortened: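 Acetone solutions dried onto glass tube walls (900 ppm giving 5 μg/cm^2); 20-50 pyrethroid-resistant Parkhurst larvae added per tube and held 48 h at 27° C., 85% relative humidity. Efficacy scored by negative geotaxis as % dead or moribund larvae.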
# Rhipicephalus microplus [4] = assay: Rhipicephalus (Boophilus) microplus dip test (BOOPMI Dip); settings: 168 h, application rate 100 ppm, engorged adult female ticks, after 7 days, read-out: activity (efficacy: 100% means all eggs are infertile)
# Experimental: Rhipicephalus (Boophilus) Microplus—Dip Test (BOOPMI Dip)
# Test Animal: cattle ticks (Rhipicephalus microplus) strain parkhurst, SP-resistant Solvent: dimethyl sulfoxide
# To produce a suitable preparation of active compound, 10 mg of active compound are dissolved in 0.5 mL solvent, and the concentrate is diluted with water to the desired concentration.
# This compound solution is pipetted into tubes. 8-10 engorged, adult, female cattle ticks (Rhipicephalus microplus) are placed in perforated tubes. These tubes are immersed in the aqueous compound solution until the ticks are completely moistened. After the liquid has drained off, the ticks are transferred to a filter paper in a plastic tray and stored in a climate chamber.
# After 7 days egg deposition of fertile eggs is monitored. Eggs where fertility is not visible are stored in a climate chamber till hatching after about 42 days. An efficacy of 100% means all eggs are infertile; 0% means all eggs are fertile.
# [5] = tested on: Aedes aegypti strain MONHEIM; assay: Aedes aegypti test (AEDSAE surface treatment & contact assay); settings: surface concentration 20 mg/m^2, glazed tile, exposure 30 minutes, 24 hours after contact, read-out: efficacy (mortality)
# Procedure, shortened: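 Compound dissolved in acetone (2 mg/ml) with 2000 ppm rapeseed oil methyl ester, pipetted onto glazed tile and dried. Adult mosquitoes exposed on the surface for 30 min; percent mortality scored 24 h after contact.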
# Ctenocephalides felis [6] = assay: Ctenocephalides felis in-vitro contact test, adult cat flea (CTECFE Cont); settings: application rate 5 μg/cm^2 (=500 g/ha), adult cat fleas, after 48 hours, read-out: activity (efficacy: 100% means all fleas are dead or moribund)
# Procedure, shortened: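 Acetone solutions coated on glass tube inner walls (900 ppm giving 5 μg/cm^2), then 5-10 adult fleas added and held 48 h at room temperature. Fleas unable to escape a 45-50° C. heating plate within 5 min scored dead or moribund; efficacy = % dead/moribund.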
# Nilaparvata lugens = Nilaparvata lugens spray test; settings: 96 h, application rate 100 g/ha, rice plants, after 4 days
# Experimental: Nilaparvata lugens—Spray Test Solvent: 78.0 parts by weight of acetone • • 1.5 parts by weight of dimethylformamide Emulsifier: alkylarylpolyglycol ether
# To produce a suitable preparation of active compound, 1 part by weight of active compound is mixed with the stated amount of solvents and is diluted with water, containing an emulsifier concentration of 1000 ppm, to the desired concentration. Further test concentrations are prepared by dilution with emulsifier containing water.
# Rice plants (Oryza sativa) are sprayed with a preparation of the active ingredient of the desired concentration and the plants are infested with the brown planthopper (Nilaparvata lugens).
# After 4 days mortality in % is determined. 100% means all planthoppers have been killed and 0% means none of the planthoppers have been killed.
SMILES,mortality at 500 g/ha (Nezara viridula),"pest or weed control at 32 µg/disc, 100 g/ha (Diabrotica balteata)","pest or weed control at 160 µg/disc, 500 g/ha (Diabrotica balteata)","pest or weed control at 1 µg/cm2, 100 g/ha (Rhipicephalus sanguineus)",pest or weed control at 0.004 mg (Rhipicephalus microplus [1]),pest or weed control at 0.02 mg (Rhipicephalus microplus [1]),mortality at 100 ppm (Ctenocephalides felis [2]),mortality at 4 ppm (Myzus persicae),mortality at 100 g/ha (Spodoptera frugiperda),mortality at 500 g/ha (Spodoptera frugiperda),pest or weed control at 5 µg/cm2 (Rhipicephalus microplus [3]),pest or weed control at 100 ppm (Rhipicephalus microplus [4]),mortality at 20 mg/m2 [5],pest or weed control at 5 µg/cm2 (Ctenocephalides felis [6]),"pest or weed control at 5 µg/cm2, 500 g/ha (Rhipicephalus sanguineus; application rate 5 μg/cm^2 (=500 g/ha))",mortality at 100 g/ha (Nilaparvata lugens)
CC(C)c1nc([C@H](C)NC(=O)c2cc(C(F)(F)F)cc(C(F)(F)F)c2)n(-c2ccc(C#N)cn2)n1 [I-7],100%,100%,100%,100%,100%,100%,100%,100%,100%,83%,100%,100%,–,–,–,–
CC(C)c1nc([C@H](C)NC(=O)c2cc(Cl)cc(C(F)(F)F)c2)n(-c2ccc(C#N)cn2)n1 [I-8],–,100%,100%,–,100%,100%,–,–,100%,100%,80%,100%,80 to 100%,80%,–,–
CC(C)c1nc([C@H](C)NC(=O)c2cc(Br)cc(OC(F)(F)F)c2)n(-c2ccc(C#N)cn2)n1 [I-26],–,100%,–,80%,100%,100%,–,–,100%,–,100%,–,80 to 100%,–,100%,90%
C[C@H](NC(=O)c1cc(Cl)cc(C(F)(F)C(F)(F)F)c1)c1nc(C2CC2)nn1-c1ccc(C#N)cn1 [I-43],–,100%,–,–,100%,–,100%,–,100%,–,100%,–,–,–,–,90%
